Results as given in US10556865B2, “Synergistic herbicidal composition containing certain pyridine or pyrimidine carboxylic acids and certain cereal and rice herbicides” (Dow AgroSciences, LLC, priority 2007, dated 2020).

Tests used:
Assay type in all cases: in vivo
[1] = test system: Ipomoea hederacea (L.) JACQ. (IPOHE); test: Postemergence herbicidal mixtures for weed control in direct seeded rice (greenhouse, visual % injury after 3 weeks)
[2] = test system: Cyperus iria L. (CYPIR); test: Postemergence herbicidal mixtures for weed control in direct seeded rice (greenhouse, visual % injury)
[3] = test system: Cyperus esculentus L. (CYPES); test: as above
[4] = test system: bird's-eye speedwell (Veronica persica L; VERPE); test: Postemergence herbicidal activity of mixtures in cereal crops (greenhouse, visual injury)
Method: (§1) The plants were grown for 7-36 days in a greenhouse with an approximate 14 hour photoperiod which was maintained at about 18° C. during the day and 17° C. during the night. Nutrients and water were added on a regular basis and supplemental lighting was provided with overhead metal halide 1000-Watt lamps as necessary. The plants were employed for testing when they reached the second or third true leaf stage.
(§2) Treatments consisted of compound (as listed in Tables 1 through 64) and a second cereal herbicide alone and in combination. […] Control plants were sprayed in the same manner with the solvent blank.
(§3) The treated plants and control plants were placed in a greenhouse as described above and watered by sub-irrigation to prevent wash-off of the test compounds. After 20-22 days, the condition of the test plants as compared with that of the control plants was determined visually and scored on a scale of 0 to 100 percent where 0 corresponds to no injury and 100 corresponds to complete kill.
(§4) The following equation was used to calculate the expected activity of mixtures containing two active ingredients, A and B: Expected=A+B−(A×B/100)

[5] = test system: scented mayweed (Matricaria chamomila L; MATCH); test: as above; conditions: Matricaria, post-emergence, read-out: MATCH Ob
Method: as §1, §2, §3, §4

[6] = test system: black mustard (Brassica nigra L; BRSNI); test: as above; conditions: Brassica, post-emergence, read-out: BRSNI Ob
Method: (§5) Seeds of the desired test plant species were planted in Sun Gro MetroMix® 306 planting mixture, which typically has a pH of 6.0 to 6.8 and an organic matter content of about 30 percent, in plastic pots with a surface area of 103.2 square centimeters (cm^2). When required to ensure good germination and healthy plants, a fungicide treatment and/or other chemical or physical treatment was applied. The plants were grown for 7-36 days in a greenhouse with an approximate 14 hour photoperiod which was maintained at about 18° C. during the day and 17° C. during the night. Nutrients and water were added on a regular basis and supplemental lighting was provided with overhead metal halide 1000-Watt lamps as necessary. The plants were employed for testing when they reached the second or third true leaf stage.
Treatments consisted of compound (as listed in Tables 1 through 64) and a second cereal herbicide alone and in combination. Weighed amounts of esters (methyl) or salts (TEA [triethylammonium], K [potassium]) of 4-amino-3-chloro -6-(4-chloro-2-fluoro-3-methoxyphenyl)pyridine-2-carboxylic acid (Compound A) or of 6-amino-5-chloro-2-(4-chloro-2-fluoro-3-methoxyphenyl)pyrimidine-4-carboxylic acid (Compound B), were placed in 25 milliliter (mL) glass vials and dissolved in a volume of 97:3 v/v acetone/DMSO to obtain 4.5 milligrams (mg) active ingredient (ai)/mL stock solutions. […] The concentrated stock solutions were diluted to 1.5 mg ai/mL with the addition of 2 volumes of an aqueous mixture containing acetone, water, isopropyl alcohol, DMSO, Agri-dex crop oil concentrate, and Triton® X-77 surfactant in a 64.7:26.0:6.7:2.0:0.7:0.01 v/v ratio. A dilution solution was prepared by mixing 1 volume of 97:3 v/v acetone/DMSO and 2 volumes of an aqueous mixture containing acetone, water, isopropyl alcohol, DMSO, Agri-dex crop oil concentrate, and Triton® X-77 surfactant in a 64.7:26.0:6.7:2.0:0.7:0.01 v/v ratio. Compound requirements are based upon a 12 mL application volume at a rate of 187 liters per hectare (L/ha). Spray solutions of the second cereal herbicide and experimental compound mixtures were prepared by adding the stock solutions to the appropriate amount of dilution solution to form 12 mL spray solution with active ingredients in two- and three-way combinations. Formulated compounds were applied to the plant material with an overhead Mandel track sprayer equipped with 8002E nozzles calibrated to deliver 187 L/ha over an application area of 0.503 square meters (m^2) at a spray height of 18 inches (43 cm) above average plant canopy. Control plants were sprayed in the same manner with the solvent blank.
as §3
(§6) Colby's equation was used to determine the herbicidal effects expected from the mixtures (Colby, S. R. 1967. Calculation of the synergistic and antagonistic response of herbicide combinations. Weeds 15:20-22.).
as §4

[7] = test system: wild pansy (Viola tricolor L; VIOTR); test: as above; conditions: Viola tricolor, post-emergence, read-out: VIOTR Ob
Method: as §1, §2, §3, §4

[8] = test system: Echinochloa species (ECHSS); test: Herbicidal mixtures for weed control in transplanted paddy rice (in-water application, visual % injury after 3 weeks); conditions: for % Injury ECHOR Ob: ECHOR = Echinocloa oryzoides
Method: Weed seeds or nutlets of the desired test plant species were planted in puddled soil (mud) prepared by mixing a non-sterilized mineral soil (28 percent silt, 18 percent clay, and 54 percent sand, with a pH of about 7.3 to 7.8 and an organic matter content of about 1.0 percent) and water at a ratio of 100 kilograms (kg) of soil to 19 L of water. The prepared mud was dispensed in 250 mL aliquots into 480 mL non-perforated plastic pots with a surface area of 91.6 square centimeters leaving a headspace of 3 centimeters in each pot. Rice seeds were planted in Sun Gro MetroMix® 306 planting mixture, which typically has a pH of 6.0 to 6.8 and an organic matter content of about 30 percent, in plastic plug trays. Seedlings at the second or third leaf stage of growth were transplanted into 650 mL of mud contained in 960 mL non-perforated plastic pots with a surface area of 91.6 cm^2 4 days prior to herbicide application. The paddy was created by filling the 3 centimeter headspace of the pots with water. When required to ensure good germination and healthy plants, a fungicide treatment and/or other chemical or physical treatment was applied. The plants were grown for 4-14 days in a greenhouse with an approximate 14 hr photoperiod which was maintained at about 29° C. during the day and 26° C. during the night. Nutrients were added as Osmocote (17:6:10, N:P:K+minor nutrients) at 2 g per cup. Water was added on a regular basis to maintain the paddy flood, and supplemental lighting was provided with overhead metal halide 1000-Watt lamps as necessary. The plants were employed for testing when they reached the second or third true leaf stage.
Treatments consisted of esters or salts of compound A, compound C, or compound D and various herbicidal components alone and in combination. For technical grade compounds, a weighed amount, determined by the highest rate to be tested, was placed in an individual 120 mL glass vial and was dissolved in 20 mL of acetone to obtain concentrated stock solutions. […] The concentrated stock solutions obtained were diluted with 20 mL of an aqueous mixture containing 2.5% Agri-dex crop oil concentrate (v/v). For formulated compounds, a measured amount, determined by the highest rate to be tested, was placed in an individual 120 mL glass vial and was dissolved in 20 mL of 2.5% (v/v) Agri-dex crop oil concentrate to obtain concentrated stock solutions. The concentrated stock solutions obtained were diluted with 20 mL of acetone. Applications were made by injecting an appropriate amount of the stock solution into the aqueous layer of the paddy. Control plants were treated in the same manner with the solvent blank. All treated plant material received the same concentration of acetone and crop oil concentrate.
Forms of compounds A, C, and D were applied on an acid equivalent basis. Other herbicidal components were applied on an active ingredient basis and included acetolactate synthase (ALS)-inhibiting herbicides penoxsulam (triazolopyrimidine chemical class) applied as Grasp SC, […] (sulfonylurea chemical class) applied as Sirius G, and bensulfuron-methyl (sulfonylurea chemical class) applied as Londax; acetyl CoA carboxylase (ACCase) inhibiting herbicides cyhalofop-butyl applied as Clincher G and fenoxaprop-p-ethyl applied as Ricestar HT; auxinic herbicide quinclorac applied as Facet 75 DF; phytoene desaturase inhibiting herbicide norflurazon; and p-hydroxyphenylpyruvate dioxygenase (HPPD) inhibiting herbicide sulcotrione applied as Mikado.
The treated plants and control plants were placed in a greenhouse as described above and water was added as needed to maintain a paddy flood. After 3 weeks the condition of the test plants as compared with that of the untreated plants was determined visually and scored on a scale of 0 to 100 percent where 0 corresponds to no injury and 100 corresponds to complete kill.

[9] = test system: blackgrass (Alopecurus myosuroides L; ALOMY); test: Postemergence herbicidal activity of mixtures in cereal crops (greenhouse, visual injury 0-100 percent after 20-22 days)
Method: as §5, with “When required to ensure good germination and healthy plants, a fungicide treatment and/or other chemical or physical treatment was applied.” left out
(§7) Treatments consisted of compound (as listed in Tables 1 through 64) and a second cereal herbicide alone and in combination. […] The concentrated stock solutions were diluted to 1.5 mg ai/mL with the addition of 2 volumes of an aqueous mixture containing acetone, water, isopropyl alcohol, DMSO, Agri-dex crop oil concentrate, and Triton® X-77 surfactant in a 64.7:26.0:6.7:2.0:0.7:0.01 v/v ratio. A dilution solution was prepared by mixing 1 volume of 97:3 v/v acetone/DMSO and 2 volumes of an aqueous mixture containing acetone, water, isopropyl alcohol, DMSO, Agri-dex crop oil concentrate, and Triton® X-77 surfactant in a 64.7:26.0:6.7:2.0:0.7:0.01 v/v ratio. Compound requirements are based upon a 12 mL application volume at a rate of 187 liters per hectare (L/ha). […] Formulated compounds were applied to the plant material with an overhead Mandel track sprayer equipped with 8002E nozzles calibrated to deliver 187 L/ha over an application area of 0.503 square meters (m^2) at a spray height of 18 inches […] above average plant canopy. Control plants were sprayed in the same manner with the solvent blank.
as §3, §6, §4

[10] = test system: littleseed Canarygrass (Phalaris minor L; PHAMI); test: Postemergence herbicidal activity of mixtures in cereal crops (greenhouse, visual injury)
Method: as §5, with “When required to ensure good germination and healthy plants, a fungicide treatment and/or other chemical or physical treatment was applied.” left out
as §7, §3, §6, §4

[11] = test system: windgrass (Apera spica-venti L; APESV); test: as above; conditions: Apera spica-venti, post-emergence, read-out: APESV Ob
Method: as §5, with “When required to ensure good germination and healthy plants, a fungicide treatment and/or other chemical or physical treatment was applied.” left out
as §7, §3, §6, §4

[12] = test system: annual ryegrass (Lolium multiflorum L; LOLMG); test: as above; conditions: 50 g/ha, Table 22
Method: as §5, with “When required to ensure good germination and healthy plants, a fungicide treatment and/or other chemical or physical treatment was applied.” left out
as §7, §3, §6, §4

COc1cc(OC)nc(Oc2cccc(Oc3nc(OC)cc(OC)n3)c2C(=O)O)n1 [Bispyribac-sodium]
% Injury IPOHE Ob ([1]; alone 7 g/ha): 10% | % Injury IPOHE Ob ([1]; alone 28 g/ha): 60% | % Injury CYPIR Ob ([2]; alone 7 g/ha): 40% | % Injury CYPIR Ob ([2]; alone 14 g/ha): 90% | % Injury CYPIR Ob ([2]; alone 28 g/ha): 95% | % Injury CYPES Ob ([3]; alone 14 g/ha): 0% | % Injury CYPES Ob ([3]; alone 28 g/ha): 50%

COc1nc(C)nc(NC(=O)NS(=O)(=O)c2ccccc2Cl)n1 [Chlorsulfuron, 2-chloro-N-[[(4-methoxy-6-methyl-1,3,5-triazin-2-yl)amino]carbonyl]benzenesulfonamide, reference compound]
VERPE Ob ([4]; 2.2 g/ha, Table 28): 5%

CCOc1c(Cl)ccc(-c2cc(N)c(Cl)c(C(=O)OC)n2)c1F [Compound D Methyl]
% Injury CYPIR Ob ([2]; alone 8.75 g/ha): 50% | % Injury CYPIR Ob ([2]; alone 35 g/ha): 80%

COc1c(Cl)ccc(Cl)c1C(=O)O [Dicamba]
pest or weed control at 35 g/ha ([5]; 35 g/ha alone): 30% | pest or weed control at 35 g/ha ([4]; Veronica persica, post-emergence, 35 g/ha alone, read-out: VERPE Ob): 10% | pest or weed control at 35 g/ha ([6]; 35 g/ha alone): 50%

CC(Oc1ccc(Cl)cc1Cl)C(=O)O (stereo not drawn) [Dichlorprop]
pest or weed control at 140 g/ha ([5]; 140 g/ha alone): 10% | pest or weed control at 140 g/ha ([4]; Veronica persica, post-emergence, 140 g/ha alone, read-out: VERPE Ob): 20%

CCC(C)(CC)c1cc(NC(=O)c2c(OC)cccc2OC)on1 [Isoxaben]
pest or weed control at 31.25 g/ha ([4]; Veronica persica, post-emergence, 31.25 g/ha alone, read-out: VERPE Ob): 0% | pest or weed control at 31.25 g/ha ([7]; 31.25 g/ha alone): 3%

CSc1nnc(C(C)(C)C)c(=O)n1N [Metribuzin]
pest or weed control at 50 g/ha ([4]; Veronica persica, post-emergence, 50 g/ha alone, read-out: VERPE Ob): 10% | pest or weed control at 50 g/ha ([7]; 50 g/ha alone): 20% | pest or weed control at 50 g/ha ([6]; 50 g/ha alone): 50%

CCOC(=O)c1cnn(C)c1S(=O)(=O)NC(=O)Nc1nc(OC)cc(OC)n1 [Pyrazosulfuron-ethyl]
% Injury Ob ([8]; ECHCG, 5.25 g/ha alone): 20%

CS(=O)(=O)c1ccc(C(=O)C2C(=O)CCCC2=O)c(Cl)c1 [Sulcotrione]
% Injury ECHOR Ob ([8]; Sulcotrione 70 g/ha alone (Compound A Methyl half)): 10% | % Injury ECHOR Ob ([8]; Sulcotrione 70 g/ha alone (Compound A TEA half)): 10%

CCON=C(CC)C1=C(O)CC(c2c(C)cc(C)cc2C)CC1=O (stereo not drawn) [Tralkoxydim, 2-[1-(ethoxyimino)propyl]-3-hydroxy-5-(2,4,6-trimethylphenyl)-2-cyclohexen-1-one, reference compound]
ALOMY Ob ([9]; 25 g/ha, Table 6): 78% | ALOMY Ob ([9]; 50 g/ha, Table 6): 70% | ALOMY Ob ([9]; 50 g/ha, Table 22): 70% | PHAMI Ob ([10]; 25 g/ha, Table 6): 35% | PHAMI Ob ([10]; 50 g/ha, Table 6): 45% | PHAMI Ob ([10]; 50 g/ha, Table 22): 30% | pest or weed control at 50 g/ha [11]: 75% | LOLMG Ob [12]: 50%

CCN(CC)CC.O=C(O)COc1nc(Cl)c(Cl)cc1Cl [Triclopyr-TEA]
% Injury CYPES Ob ([3]; alone 140 g/ha): 0% | % Injury CYPES Ob ([3]; alone 280 g/ha): 0%
